US20050004044A1, “Use of orsaponin [3beta, 16beta, 17 alpha-trihydroxycholost-5-en-22-one 16-0-(2-0-4-methoxybenzoyl-beta-D-xylopyranosyl)-(1->3)-(2-0-acetyl-alpha-L-arabinopyranoside)] or OSW-1 and its derivatives for cancer therapeutics” (priority 2003, published 2005)

What was measured:
[1] = system: human ovarian cancer SKOV3 cells; test: Survival of nude mice inoculated i.p. with SKOV3; format: in vivo; conditions: i.p. 10 μg/kg/day, 5 days/week for two weeks
Experimental: FIG. 12. Nude mice were inoculated with human ovarian cancer SKOV3 cells (2×10^6/mouse, i.p., 10 mice/group). Drug treatment started on day 6 after tumor inoculation. OSW-1 was given by i.p. injection, 10 μg/kg/day, 5 days/week for two weeks.
Thus, nude mice were inoculated with human ovarian cancer SKOV3 cells at a concentration of 2×10^6/mouse, by the intraperitoneal route (i.p.) with 10 mice/group. Treatment with OSW-1 was started on day 6 after tumor inoculation. The control group was treated with saline. OSW-1 was given by i.p. injection, 10 μg/kg/day, 5 days/week for two weeks. […] When severe tumor burden and moribund signs appeared, euthanasia for the affected animal was performed according to IACUC standards.

[2] = system: C6F cells (HL-60 mutant with mitochondrial respiration defect); test: Apoptosis and cell cycle, respiration-deficient C6F; format: cell-based, human; conditions: 0.5 nM, 16 and 24 h
Experimental: FIG. 9. Mitochondrial respiration plays an important role in the cytotoxic action of Orsaponin (OSW-1). The parental HL-60 line and its mutant with mitochondrial respiration defect, clone C6F, were incubated with 0.5 nM OSW-1 for the indicated times. Apoptosis and change in cell cycle distribution were assayed by flow cytometry analysis.
Two cancer cell lines and their mutant mitochondrial respiration deficient clones were analyzed for apoptosis and changes in cell-cycle following exposure to OSW-1. Thus, the parental HL-60 leukemia line and its mitochondrial respiration defective mutant C6F were incubated with 0.5 nM OSW-1 for 0, 8, 16 and 24 hours and apoptosis and change in cell cycle distribution were assayed by flow cytometry analysis. […] Thus, it is clear that the respiration defective cells are resistant to the effects of OSW-1. Consistent with these observations, apoptosis was also detected by DNA fragmentation assays performed at 24 and 32 hours after HL-60 cells are treated with OSW-1; DNA fragmentation was not observed in C6F cells even at 32 hours of drug incubation (data not shown).

[3] = system: malignant glioma U87-MG cells; test: MTT cell growth inhibition, U87-MG glioma; format: cell-based, human
Experimental: (§1) 1. MTT Assays. For these assays either cancer cell lines were used. Alternatively, mononuclear cells from peripheral blood samples of CLL patients or normal donors were separated by Ficoll Hipaque fractionation and resuspended in DMEM complete medium. Malignant cells from various human cell lines (usually at 5×10^4 cells/ml) or mononuclear cells from peripheral blood of leukemia patients and healthy donors (1×10^6 cells/ml) were incubated in either αMEM or RPMI 1640 with or without various concentrations of OSW-1 in the range of 0-10 nM. Each experimental condition was done in triplicate. After the indicated number of days (usually 3 days or 72 hours) of exposure to OSW-1, cell survival was assessed by the addition of the MTT dye to the wells. The MTT dye changes its color depending on the presence of live cells in the well. Survival of cells under orsaponin treatment was evaluated as a percentage of control cell growth. Alternatively, one can also use the dye trypan-blue which penetrates dead cells thereby allowing one to count live cells under the microscope and estimating percentage survival.
To test the therapeutic selectivity of Orsaponin and 17-deoxyorsaponin, their effect on human brain tumor cells (U87 malignant glioma) and normal human astrocytes were compared. The normal human astrocytes were previously immortalized by transfection with hTER to allow a long-term culture in vitro. The antiproliferative effect of Orsaponin in human malignant glioma cells (U87-MG) and normal human astrocytes was examined. Cells were incubated with various concentrations of Orsaponin for 72 h. Cell growth inhibition was measured by MTT assay (FIG. 21).

[4] = system: pancreatic cancer (Panco-2) cells; test: MTT cell growth inhibition, Panco-2; format: cell-based; conditions: Mus musculus, Panco-2, 72 h
Experimental: as §1
(§2) The effect of Orsaponin and 17-deoxyorsaponin in pancreatic cancer cells was also assessed. […] Cell growth inhibition was measured by MTT assay.

[5] = system: pancreatic cancer AsPC-1 cells; test: MTT cell growth inhibition, AsPC-1; format: cell-based, human; conditions: AsPC-1, 72 h or 96 h
Experimental: FIG. 3. Effect of Orsaponin (OSW-1) on cell growth in human pancreatic cancer cells. Human pancreatic cancer AsPC-1 cells were treated with the indicated concentrations of OSW-1 for 72 h or 96 h. Cell growth inhibition was measured by MTT assay.
FIG. 4. The anticancer activity of Orsaponin (OSW-1) is not affected by NFκB expression in pancreatic cancer cells. Human pancreatic cancer cells AsPC-1 with constitutive activation of NFκB or inactivation of NFκB by dominant negative IκBα (AsPC-1/IκBα-ND) were treated with the indicated concentrations of OSW-1 for 72 h. Cell growth inhibition was measured by MTT assay.
Cells and Cell Lines. Various cancer cell lines were used including the human leukemia cell lines HL-60 and ML-1 cells; human lymphoma cell line Raji; human pancreatic cancer cells AsPC-1; and human ovarian cancer cells SKOV3; human colon cancer cells HCT116; as well as isolated CLL cells from patients; and lymphocytes from normal donors. […]
1. […] After the indicated number of days (usually 3 days or 72 hours) of exposure to OSW-1, cell survival was assessed by the addition of the MTT dye to the wells. […] Survival of cells under orsaponin treatment was evaluated as a percentage of control cell growth. […]
as §2

ML-1 cells = test: Mitochondrial transmembrane potential (rhodamine-123), ML-1; format: cell-based, human; conditions: ML-1, 1 nM, 16 and 24 h
Experimental: FIG. 11. Effect of orsaponin (OSW-1) on mitochondrial transmembrane potential ML-1 cells. The parental ML-1 line and its mutant with mitochondrial respiration defect, clone C19, were incubated with 1 nM OSW-1 for the indicated times. Change in mitochondrial transmembrane potential was measured by cytometry analysis, using rhodamine-123 as a potential-sensitive fluorescent probe.
3. Analysis of the Mitochondrial Transmembrane Potential. To evaluate the role of mitochondrial respiration in the cytotoxicity of OSW-1, changes in the potential of mitochondrial membrane were analyzed. Following the treatment of cells with OSW-1 for different time periods, cells were incubated with rhodamine-123 which is a potential-sensitive dye. Cytometric analysis was used to record changes in mitochondrial potential. […]
The effect of OSW-1 on mitochondrial transmembrane potential of ML-1 cells and the corresponding mitochondrial respiration defective mutant cell line C19 were analyzed by incubating with 1 nM OSW-1 for 4, 16 and 24 hours. Change in mitochondrial transmembrane potential was measured by cytometry analysis, using rhodamine-123 as a potential-sensitive fluorescent probe and are depicted in FIG. 11.

[6] = system: normal human pulmonary cells; conditions: Mimaki et al., 1997; read-out: IC50, toxicity to normal human pulmonary cells; cited from earlier work

COc1ccc(C(=O)OC2C(OC3C(O)COC(O[C@H]4C[C@H]5[C@@H]6CC=C7C[C@@H](O)CC[C@]7(C)[C@H]6CC[C@]5(C)[C@@]4(O)[C@H](C)C(=O)CCC(C)C)C3OC(C)=O)OCC(O)C2O)cc1 (stereo partly drawn) [OSW-1, 3β, 16β, 17 α-trihydroxycholost-5-en-22-one 16-O-(2-O-4-methoxybenzoyl-β-D-xylopyranosyl)-(1->3)-(2-O-acetyl-α-L-arabinopyranoside)]
Survival % ([1]; 30 days): 100% | Survival % ([1]; 60 days): 50% | apoptosis [2]: does not result in significant apoptosis | IC50 ([3]; Homo sapiens, U-87 MG, U87-MG, 72 h, MTT): < 0.1 nM | sensitivity of glioma cells compared with normal astrocytes ([3]; U87-MG vs normal human astrocytes): much more sensitive | IC50 [4]: 0.1 nM | concentrations at which highly potent [5]: 0.1 to 5 nM | change in mitochondrial transmembrane potential (ML-1 cells): substantial loss of mitochondrial transmembrane potential | IC50 [6]: 1500 nM
